Literature values in article PMC2818531 (Bioorganic & medicinal chemistry letters, 2009).

Target: HIV gp41 six-helix bundle (6-HB) (Human immunodeficiency virus type 1 group M subtype B, UniProt P04578)
Settings: read-out: EC50, inhibition of gp41 6-helical bundle formation

HIV gp41 six-helix bundle (6-HB), sequence (P04578 546-581): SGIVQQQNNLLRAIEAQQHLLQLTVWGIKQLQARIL

Cc1ccc(C)n1-c1ccc(O)c(C(=O)O)c1 [Ligand A12]
EC50: 37.4 µM
